From paper PMC10933344, “A lncRNA Dleu2-encoded peptide relieves autoimmunity by facilitating Smad3-mediated Treg induction” (EMBO Reports, 2024)

Tests used:
[1] = tested on: Smad3 binding to Foxp3 CNS1 region; assay: EMSA, Foxp3 CNS1 probe, NIH/3T3 nuclear lysates; settings: 3, 10, 30 μM; NIH/3T3 nuclear extracts
Protocol: EMSA was performed using the LightShift Chemiluminescent EMSA kit (Thermo Fisher Scientific, #20148). Briefly, Nuclear extracts of NIH/3T3 cells were prepared using theNE-PER Nuclear and Cytoplasmic Extraction Kit (Thermo Fisher Scientific, #78835). Complementary DNA oligonucleotide Foxp3 CNS1 region probes were 5′-[…]-3′ and 5′-[…]-3′, AP-1 probes were 5′-[…]-3′ and 5′-[…]-3′, PAI-1 probes were 5′-[…]-3′ and 5′-[…]-3′. Probes were end-labeled with biotin and annealed. The reaction mix consists of labeled oligonucleotides, 10 µg of the nuclear extracts, and 3, 10, 30 μM Dleu2-17aa or scrPEP. The binding reaction was incubated at room temperature for 30 min, followed by loading onto a 6% native DNA polyacrylamide gel. The gel was prerun and run with […] Tris-Borate-EDTA and processed according to the manufacturer’s instructions.

[2] = tested on: CD4+ T cells in CNS of EAE mice; assay: Flow cytometry of CNS T cells of treated EAE mice; format: in vivo, mouse; settings: 100 μg i.v., replicate 4
[3] = tested on: TGF-β/Smad signaling in CD4+ T cells; assay: qPCR analysis of TGF-β/Smad signaling downstream genes; format: cell-based, mouse; settings: 20 μM 17aa, 24 h
Protocol: Figure 4 Dleu2-17aa modulates TGF-β/Smad signaling to promote Foxp3 transcription. (A) qPCR analysis of TGF-β/Smad signaling downstream genes in CD4^+ T cells treated with Dleu2-17aa or scrPEP for 24 h and challenged with TGF-β to activate the signaling pathway (n = 3). (B) NIH/3T3 cells were transfected with a Foxp3 CNS1-luciferase reporter plasmid and a Smad3 expression vector. Subsequently, the cells were treated with either Dleu2-17aa or scrPEP. Luciferase activity fold induction was quantified (n = 3). (C) Foxp3 CNS1 region enrichment by Smad3 treated with or without Dleu2-17aa for 24 h in CD4^+ T cells was assessed by ChIP-qPCR (n = 3). (D) EMSA was performed in NIH/3T3 cell nuclear lysates using a 10 μM biotin-labeled Foxp3 probe and treated with Dleu2-17aa or scrPEP (3, 10, 30 μM). There were band shifts to a higher molecular weight and an increase in band intensity by Dleu2-17aa treatment. Data information: n indicates biological replicate. Error bars are mean ± SEM; **P < 0.01, and ***P < 0.001. Statistical analysis was by two-tailed Student’s t-test for (A–C). Source data are available online for this figure.
Total RNA from cells or tissues was extracted using TRIzol reagent (Invitrogen) and then quantified. 1 μg of total RNA was reverse transcribed into cDNA with HiScript II Q RT SuperMix for qPCR (+gDNA Wiper) (Vazyme, China, R223-01). The cDNA samples were run in triplicate at 200 ng/well. Quantitative real-time PCR (qPCR) was performed using ChamQ Universal SYBR qPCR Master Mix (Vazyme, China) on an Applied Biosystems 7500 Fast Real-Time PCR System or a ViiA 7 Real-Time PCR System (Applied Biosystems). All gene expression results were normalized to the expression of the housekeeping gene GAPDH. Primer sequences are listed as follows: Dleu2 forward, 5′-[…]-3 and reverse, 5′-[…]-3; Foxp3 forward, 5′-CCCATCCCCAGGAGTCTTG-3′ and reverse, 5′-[…]-3′; Ctla2a forward, 5′-[…]-3′ and reverse, 5′-[…]-3′; Ccr8 forward, 5′-[…]-3′ and reverse, 5′-[…]-3′; Tgf-β forward: 5′-[…]-3′ and reverse, 5′-[…]-3′; Ctla4 forward, 5′-[…]-3′ and reverse, 5′-[…]-3′; Gapdh forward, 5′-[…]-3′ and reverse, 5′-GGGGTCGTTGATGGCAAC-3′.

ARGPARRMRGGRRRRLR [scrPEP, scrambled control peptide of Dleu2-17aa]
Smad3 binding to the CNS1 region of Foxp3 (EMSA) [1]: did not | CD4+ / Live Cells(%) [2]: 10.2% | Foxp3+/ CD4+ Cells (%) [2]: 10.5% | IFN-γ+/ CD4+ Cells(%) [2]: 22.6% | Relative mRNA expression, Ccr8 ([3]; TGF-β, replicate 1): 1.77 | Relative mRNA expression, Clta4 ([3]; TGF-β, replicate 1): 4.488 | Relative mRNA expression, Ctla2a ([3]; TGF-β, replicate 1): 7.981 | Relative mRNA expression, Foxp3 ([3]; TGF-β, replicate 1): 19.2862 | Relative mRNA expression, Tgf-β ([3]; TGF-β, replicate 1): 0.9918 | Relative mRNA expression, Ccr8 ([3]; TGF-β, replicate 2): 1.871 | Relative mRNA expression, Clta4 ([3]; TGF-β, replicate 2): 3.767 | Relative mRNA expression, Ctla2a ([3]; TGF-β, replicate 2): 6.697 | Relative mRNA expression, Foxp3 ([3]; TGF-β, replicate 2): 27.373 | Relative mRNA expression, Tgf-β ([3]; TGF-β, replicate 2): 0.9024 | Relative mRNA expression, Ccr8 ([3]; TGF-β, replicate 3): 1.768 | Relative mRNA expression, Clta4 ([3]; TGF-β, replicate 3): 4.326 | Relative mRNA expression, Ctla2a ([3]; TGF-β, replicate 3): 4.254 | Relative mRNA expression, Foxp3 ([3]; TGF-β, replicate 3): 26.607 | Relative mRNA expression, Tgf-β ([3]; TGF-β, replicate 3): 1.365 | Relative mRNA expression, Ccr8 ([3]; no TGF-β, replicate 1): 1 | Relative mRNA expression, Clta4 ([3]; no TGF-β, replicate 1): 1 | Relative mRNA expression, Ctla2a ([3]; no TGF-β, replicate 1): 1 | Relative mRNA expression, Foxp3 ([3]; no TGF-β, replicate 1): 1 | Relative mRNA expression, Tgf-β ([3]; no TGF-β, replicate 1): 1 | Relative mRNA expression, Ccr8 ([3]; no TGF-β, replicate 2): 0.871 | Relative mRNA expression, Clta4 ([3]; no TGF-β, replicate 2): 0.794 | Relative mRNA expression, Ctla2a ([3]; no TGF-β, replicate 2): 0.868 | Relative mRNA expression, Foxp3 ([3]; no TGF-β, replicate 2): 1 | Relative mRNA expression, Tgf-β ([3]; no TGF-β, replicate 2): 0.7198 | Relative mRNA expression, Ccr8 ([3]; no TGF-β, replicate 3): 1 | Relative mRNA expression, Clta4 ([3]; no TGF-β, replicate 3): 0.856 | Relative mRNA expression, Ctla2a ([3]; no TGF-β, replicate 3): 1 | Relative mRNA expression, Foxp3 ([3]; no TGF-β, replicate 3): 0.967 | Relative mRNA expression, Tgf-β ([3]; no TGF-β, replicate 3): 0.8563
